From US20250092111A1, “POTENT AND STABLE POLYPEPTIDE ANALOGUES VIA SERINE/THREONINE LIGATION” (UNIVERSITY OF WASHINGTON, priority 2022, published 2025)

Tested on: mouse model of glucose disposal
Test: Glucose tolerance test (GTT) in vivo
Conditions: standard glucose tolerance test, data not shown
Protocol: Given the promising activation and stability data, the peptides were tested in vivo using a standard glucose tolerance test (GTT).

Structure (SMILES): CCCCCCCCCCCCCCCCCCOCCOCCOCCOCCOCCC(=O)N[C@@H](CO)C(=O)NCCCC[C@H](NC(=O)[C@H](CO)NC(=O)[C@@H](NC(=O)[C@H](CC(=O)O)NC(=O)[C@H](CO)NC(=O)[C@@H](NC(=O)[C@H](Cc1ccccc1)NC(=O)[C@@H](NC(=O)CNC(=O)[C@H](CCC(=O)O)NC(=O)[C@H](C)NC(=O)[C@@H](N)Cc1c[nH]cn1)[C@@H](C)O)[C@@H](C)O)C(C)C)C(=O)N[C@@H](Cc1ccc(O)cc1)C(=O)N[C@@H](CC(C)C)C(=O)N[C@@H](CCC(=O)O)C(=O)NCC(=O)N[C@@H](CCC(N)=O)C(=O)N[C@@H](C)C(=O)N[C@@H](C)C(=O)N[C@@H](CCCCN)C(=O)N[C@@H](CCC(=O)O)C(=O)N[C@@H](Cc1ccccc1)C(=O)N[C@H](C(=O)N[C@@H](C)C(=O)N[C@@H](Cc1c[nH]c2ccccc12)C(=O)N[C@@H](CC(C)C)C(=O)N[C@H](C(=O)N[C@@H](CCCCN)C(=O)NCC(=O)N[C@@H](CCCNC(=N)N)C(=O)NCC(=O)O)C(C)C)[C@@H](C)CC [Peptide G2]
- glucose disposal efficiency compared to unmodified GLP-1: improved glucose disposal efficiency
